From the supplement of paper PMC9663587

Tests used:
Test in all cases: area over the GR curve, 72 h; higher = more effect;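 further: Dye Drop or Deep Dye Drop imaging of viable cells in 384-well plates (Hoechst nuclei, LIVE/DEAD dye), nine half-log doses, GR normalized to DMSO controls and time-zero plates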
MDAMB436 = system: MDAMB436
HCC38 = system: HCC38
HCC1569 = system: HCC1569
MDAMB468 = system: MDAMB468
MDAMB330 = system: MDAMB330
ZR751 = system: ZR751
HS578T = system: HS578T
HCC70 = system: HCC70
MCF12A = system: MCF12A
SUM52PE = system: SUM52PE
HCC1806 = system: HCC1806
MDAMB415 = system: MDAMB415
HCC1954 = system: HCC1954

`CS(=O)(=O)N1CCN(Cc2cc3nc(-c4cccc5[nH]ncc45)nc(N4CCOCC4)c3s2)CC1` [Pictilisib/GDC0941] (max 10 µM) was tested, and the “area over the GR curve” value (MDAMB436) was 0.133 GR, the “area over the GR curve” value (HCC38) was 0.118 GR and the “area over the GR curve” value (HCC1569) was 0.346 GR. The “area over the GR curve” value (MDAMB468) was 0.205 GR, the “area over the GR curve” value (MDAMB330) was 0.53 GR and the “area over the GR curve” value (ZR751) was 0.324 GR. The “area over the GR curve” value (HS578T) was 0.311 GR, the “area over the GR curve” value (HCC70) was 0.573 GR and the “area over the GR curve” value (MCF12A) was 0.089 GR. For the same compound, the “area over the GR curve” value (SUM52PE) was 0.364 GR, the “area over the GR curve” value (HCC1806) was 0.118 GR and the “area over the GR curve” value (MDAMB415) was 0.378 GR. The “area over the GR curve” value (HCC1954) was 0.309 GR.

With `O=C1NC(=O)[C@@H](c2cn3c4c(cccc24)CCC3)[C@@H]1c1c[nH]c2ccccc12` [Tivantinib/ARQ197] (max 10 µM) the “area over the GR curve” value (MDAMB436) was 0.421 GR, the “area over the GR curve” value (HCC38) was 0.436 GR and the “area over the GR curve” value (HCC1569) was 0.278 GR. For the same compound, the “area over the GR curve” value (MDAMB468) was 0.49 GR, the “area over the GR curve” value (MDAMB330) was 0.368 GR and the “area over the GR curve” value (ZR751) was 0.255 GR. The “area over the GR curve” value (HS578T) was 0.437 GR, the “area over the GR curve” value (HCC70) was 0.474 GR and the “area over the GR curve” value (MCF12A) was 0.374 GR. The “area over the GR curve” value (SUM52PE) was 0.411 GR, the “area over the GR curve” value (HCC1806) was 0.446 GR and the “area over the GR curve” value (MDAMB415) was 0.213 GR. For the same compound, the “area over the GR curve” value (HCC1954) was 0.544 GR.

With `Cc1c(N)nc([C@H](CC(N)=O)NC[C@H](N)C(N)=O)nc1C(=O)N[C@H](C(=O)N[C@H](C)[C@@H](O)[C@H](C)C(=O)N[C@H](C(=O)NCCc1nc(-c2nc(C(=O)NCCC[S+](C)C)cs2)cs1)[C@@H](C)O)[C@@H](OC1OC(CO)C(O)C(O)C1OC1OC(CO)C(O)C(OC(N)=O)C1O)c1cnc[nH]1` (stereo partly specified) [Bleomycin] (max 10 µM) the “area over the GR curve” value (MDAMB436; main component drawn) was 0.309 GR, the “area over the GR curve” value (HCC38; main component drawn) was 0.485 GR and the “area over the GR curve” value (MDAMB468; main component drawn) was 0.325 GR. For the same compound, the “area over the GR curve” value (HS578T; main component drawn) was 0.446 GR, the “area over the GR curve” value (HCC70; main component drawn) was 0.419 GR and the “area over the GR curve” value (HCC1806; main component drawn) was 0.117 GR. For the same compound, the “area over the GR curve” value (HCC1954; main component drawn) was 0.617 GR.

`CO[C@H]1C[C@@H]2CC[C@@H](C)[C@@](O)(O2)C(=O)C(=O)N2CCCC[C@H]2C(=O)O[C@H]([C@H](C)C[C@@H]2CC[C@@H](OCCO)[C@H](OC)C2)CC(=O)[C@H](C)/C=C(\C)[C@@H](O)[C@@H](OC)C(=O)[C@H](C)C[C@H](C)/C=C/C=C/C=C/1C` [Everolimus] (max 10 µM) was tested, and the “area over the GR curve” value (MDAMB436) was 0.314 GR, the “area over the GR curve” value (HCC38) was 0.486 GR and the “area over the GR curve” value (HCC1569) was 0.349 GR. For the same compound, the “area over the GR curve” value (MDAMB468) was 0.429 GR, the “area over the GR curve” value (MDAMB330) was 1.28 GR and the “area over the GR curve” value (ZR751) was 0.669 GR. For the same compound, the “area over the GR curve” value (HS578T) was 0.527 GR, the “area over the GR curve” value (HCC70) was 0.476 GR and the “area over the GR curve” value (MCF12A) was 0.273 GR. The “area over the GR curve” value (SUM52PE) was 0.408 GR, the “area over the GR curve” value (HCC1806) was 0.197 GR and the “area over the GR curve” value (MDAMB415) was 0.807 GR. For the same compound, the “area over the GR curve” value (HCC1954) was 0.653 GR.

In the case of `CN1CC[C@H](c2c(O)cc(O)c3c(=O)cc(-c4ccccc4Cl)oc23)[C@H](O)C1` [Flavopiridol] (max 1 µM), the “area over the GR curve” value (MDAMB436) is reported as 0.224 GR, the “area over the GR curve” value (HCC38) is reported as 0.29 GR and the “area over the GR curve” value (HCC1569) is reported as 0.232 GR. For the same compound, the “area over the GR curve” value (MDAMB468) was 0.269 GR, the “area over the GR curve” value (MDAMB330) was 0.285 GR and the “area over the GR curve” value (ZR751) was 0.152 GR. The “area over the GR curve” value (HS578T) was 0.254 GR, the “area over the GR curve” value (HCC70) was 0.415 GR and the “area over the GR curve” value (MCF12A) was 0.167 GR. For the same compound, the “area over the GR curve” value (SUM52PE) was 0.215 GR, the “area over the GR curve” value (HCC1806) was 0.257 GR and the “area over the GR curve” value (MDAMB415) was 0.284 GR. For the same compound, the “area over the GR curve” value (HCC1954) was 0.313 GR.

`CNCc1ccc(-c2[nH]c3cc(F)cc4c3c2CCNC4=O)cc1` [Rucaparib] (max 10 µM) was tested, and the “area over the GR curve” value (MDAMB436) was 0.399 GR, the “area over the GR curve” value (HCC38) was 0.139 GR and the “area over the GR curve” value (HCC1569) was -0.0162 GR. For the same compound, the “area over the GR curve” value (MDAMB468) was 0.101 GR, the “area over the GR curve” value (MDAMB330) was 0.107 GR and the “area over the GR curve” value (ZR751) was 0.0837 GR. For the same compound, the “area over the GR curve” value (HS578T) was 0.0974 GR, the “area over the GR curve” value (HCC70) was -0.0415 GR and the “area over the GR curve” value (MCF12A) was 0.0783 GR. For the same compound, the “area over the GR curve” value (SUM52PE) was 0.0094 GR, the “area over the GR curve” value (HCC1806) was 0.117 GR and the “area over the GR curve” value (MDAMB415) was 0.11 GR. The “area over the GR curve” value (HCC1954) was 0.059 GR.

For `CC[C@@H]1C(=O)N(C)c2cnc(Nc3ccc(C(=O)N[C@H]4CC[C@H](N5CCN(CC6CC6)CC5)CC4)cc3OC)nc2N1C(C)C` [Volasertib/BI6727] (max 1 µM), the “area over the GR curve” value (MDAMB436) was 0.662 GR, the “area over the GR curve” value (HCC38) was 0.59 GR and the “area over the GR curve” value (HCC1569) was 0.375 GR. For the same compound, the “area over the GR curve” value (MDAMB468) was 0.928 GR, the “area over the GR curve” value (MDAMB330) was 0.778 GR and the “area over the GR curve” value (ZR751) was 0.263 GR. The “area over the GR curve” value (HS578T) was 0.82 GR, the “area over the GR curve” value (HCC70) was 0.579 GR and the “area over the GR curve” value (MCF12A) was 0.321 GR. For the same compound, the “area over the GR curve” value (SUM52PE) was 0.488 GR, the “area over the GR curve” value (HCC1806) was 0.726 GR and the “area over the GR curve” value (MDAMB415) was 0.546 GR. For the same compound, the “area over the GR curve” value (HCC1954) was 0.611 GR.

With `CC1(N)CCN(c2cnc(-c3cccc(Cl)c3Cl)c(N)n2)CC1` [SHP099] (max 10 µM) the “area over the GR curve” value (MDAMB436) was -0.0036 GR, the “area over the GR curve” value (HCC38) was 0.172 GR and the “area over the GR curve” value (HCC1569) was -0.114 GR. The “area over the GR curve” value (MDAMB468) was 0.134 GR, the “area over the GR curve” value (MDAMB330) was 0.121 GR and the “area over the GR curve” value (ZR751) was 0.0364 GR. For the same compound, the “area over the GR curve” value (HS578T) was 0.142 GR, the “area over the GR curve” value (HCC70) was 0.074 GR and the “area over the GR curve” value (MCF12A) was 0.0144 GR. The “area over the GR curve” value (SUM52PE) was -0.0423 GR, the “area over the GR curve” value (HCC1806) was -0.0155 GR and the “area over the GR curve” value (MDAMB415) was 0.0605 GR. The “area over the GR curve” value (HCC1954) was 0.0791 GR.

With `CNc1nc(-c2ccc3c(N)n[nH]c3c2)cc(N2C[C@@H](C(=O)NC3CCCCC3)CC[C@H]2C)n1` (max 10 µM) the “area over the GR curve” value (MDAMB436) was 0.0007 GR, the “area over the GR curve” value (HCC38) was 0.0564 GR and the “area over the GR curve” value (HCC1569) was 0.114 GR. For the same compound, the “area over the GR curve” value (MDAMB468) was 0.0821 GR, the “area over the GR curve” value (MDAMB330) was 0.498 GR and the “area over the GR curve” value (ZR751) was 0.257 GR. The “area over the GR curve” value (HS578T) was 0.157 GR, the “area over the GR curve” value (HCC70) was 0.288 GR and the “area over the GR curve” value (MCF12A) was 0.0618 GR. For the same compound, the “area over the GR curve” value (SUM52PE) was 0.124 GR, the “area over the GR curve” value (HCC1806) was 0.0151 GR and the “area over the GR curve” value (MDAMB415) was 0.295 GR. The “area over the GR curve” value (HCC1954) was 0.0806 GR.

With `CCc1cncnc1N1CCN(Cc2nc3ccc(C(F)(F)F)cc3[nH]2)CC1` (max 10 µM) the “area over the GR curve” value (MDAMB436) was 0.0903 GR, the “area over the GR curve” value (HCC38) was -0.0304 GR and the “area over the GR curve” value (HCC1569) was 0.0337 GR. For the same compound, the “area over the GR curve” value (MDAMB468) was 0.118 GR, the “area over the GR curve” value (MDAMB330) was 0.0392 GR and the “area over the GR curve” value (ZR751) was -0.0587 GR. The “area over the GR curve” value (HS578T) was 0.0252 GR, the “area over the GR curve” value (HCC70) was -0.077 GR and the “area over the GR curve” value (MCF12A) was -0.0039 GR. For the same compound, the “area over the GR curve” value (SUM52PE) was 0.0787 GR, the “area over the GR curve” value (HCC1806) was -0.0429 GR and the “area over the GR curve” value (MDAMB415) was 0.0085 GR. For the same compound, the “area over the GR curve” value (HCC1954) was -0.0456 GR.

With `COc1cc2c(Oc3ccc4[nH]c(C)cc4c3F)ncnc2cc1OCCCN1CCCC1` [Cediranib/AZD2171] (max 10 µM) the “area over the GR curve” value (MDAMB436) was 0.161 GR, the “area over the GR curve” value (HCC38) was 0.202 GR and the “area over the GR curve” value (HCC1569) was -0.0292 GR. For the same compound, the “area over the GR curve” value (MDAMB468) was 0.165 GR, the “area over the GR curve” value (MDAMB330) was 0.105 GR and the “area over the GR curve” value (ZR751) was 0.019 GR. The “area over the GR curve” value (HS578T) was 0.394 GR, the “area over the GR curve” value (HCC70) was 0.0746 GR and the “area over the GR curve” value (MCF12A) was -0.0002 GR. For the same compound, the “area over the GR curve” value (SUM52PE) was 0.379 GR, the “area over the GR curve” value (HCC1806) was 0.0606 GR and the “area over the GR curve” value (MDAMB415) was 0.246 GR. The “area over the GR curve” value (HCC1954) was 0.0591 GR.

For `N.N.[Cl][Pt][Cl]` [Cisplatin] (max 10 µM), the “area over the GR curve” value (MDAMB436) was 0.36 GR, the “area over the GR curve” value (HCC38) was 0.257 GR and the “area over the GR curve” value (MDAMB468) was 0.287 GR. The “area over the GR curve” value (HS578T) was 0.235 GR, the “area over the GR curve” value (HCC70) was 0.253 GR and the “area over the GR curve” value (HCC1806) was 0.317 GR. The “area over the GR curve” value (HCC1954) was 0.275 GR.

`CC[C@@]1(O)C(=O)OCc2c1cc1n(c2=O)Cc2cc3c(CN(C)C)c(O)ccc3nc2-1` [Topotecan] (max 10 µM) was tested, and the “area over the GR curve” value (MDAMB436) was 0.877 GR, the “area over the GR curve” value (HCC38) was 1.07 GR and the “area over the GR curve” value (MDAMB468) was 1.07 GR. For the same compound, the “area over the GR curve” value (HS578T) was 1.02 GR, the “area over the GR curve” value (HCC70) was 1.06 GR and the “area over the GR curve” value (HCC1806) was 1.07 GR. The “area over the GR curve” value (HCC1954) was 0.869 GR.
